Square brackets hold non-standard residues; d marks the D form. Peptide text beside a SMILES is read from it. * marks the point of attachment. Biotin = O=C1N[C@H]2[C@H](CS[C@H]2CCCCC(=O)*)N1; Ahx = NCCCCCC(=O)O
How the values were obtained:
[1] = Peptide stability in mouse serum ex vivo; format: in vitro ADME; conditions: 37°C
EphB4 = conditions: cell culture; cited from earlier work
Method: An explanation for the discrepancy in the potency of the peptide in biochemical and cell culture assays could be that TNYL-RAW is susceptible to degradation by proteases present in cell culture medium. For example, trypsin-like proteases are l ... || Despite the low nanomolar EphB4 binding affinity of TNYL-RAW, the very short half-life of the peptide greatly limits its effectiveness, as exemplified by the high concentrations (10–100 µM) needed to inhibit EphB4-ephrin-B2 interaction in cell culture, [33], [36], [37]. We used three strategies to improve TNYL-RAW stability in cell culture and circulating half-life: fusion with Fc, complexation with streptavidin and covalent coupling to 40 KDa polymeric PEG molecules. Fusion with Fc has been successfully used to improve the stability and pharmacokinetic properties of numerous prot ...

EphB4-ephrin-B2 binding = target: T1, EphB4-ephrin-B2 binding (Mus musculus, UniProt P54761); test: ELISA inhibition of EphB4-ephrin-B2 binding (ephrin-B2 AP on immobilized EphB4 Fc); conditions: incubated in conditioned medium for 4 hours before ELISA; Figure 1C
T1 construct: EphB4 Fc, a soluble dimeric form of the EphB4 extracellular domain fused to Fc; purchased R&D Systems, Minneapolis, MN (EphB4 Fc); ephrin-B2 AP made in house from a GeneHunter plasmid; host or cells: HEK 293T cells for ephrin-B2 AP
T1 sequence (P54761 16-539 limits assumed): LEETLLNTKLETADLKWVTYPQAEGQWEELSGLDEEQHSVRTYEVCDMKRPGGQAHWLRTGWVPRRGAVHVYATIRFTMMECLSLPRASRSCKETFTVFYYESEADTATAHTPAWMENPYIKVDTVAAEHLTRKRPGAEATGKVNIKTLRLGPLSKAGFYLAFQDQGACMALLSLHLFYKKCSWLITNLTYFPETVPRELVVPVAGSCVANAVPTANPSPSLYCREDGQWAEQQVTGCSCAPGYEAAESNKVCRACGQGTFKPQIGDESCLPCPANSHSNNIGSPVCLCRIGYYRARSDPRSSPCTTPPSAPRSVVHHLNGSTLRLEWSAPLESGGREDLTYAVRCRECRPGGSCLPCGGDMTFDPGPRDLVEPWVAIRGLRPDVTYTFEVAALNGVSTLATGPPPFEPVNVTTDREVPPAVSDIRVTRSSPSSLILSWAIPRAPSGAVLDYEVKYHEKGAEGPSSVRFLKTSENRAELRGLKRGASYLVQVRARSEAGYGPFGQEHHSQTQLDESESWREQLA
Method: Alkaline phosphatase (AP) fusion proteins were produced by transiently transfecting the mouse EphB4 AP [70] or mouse ephrin-B2 AP plasmids (GeneHunter, Nashville, TN) in HEK 293T cells and growing the cells in serum-free Opti-MEM medium for 2–4 days. If necessary, the culture medium containing the secreted AP protein was concentrated by centrifugation in Amicon 30,000 MW cutoff filters (Millipore, Inc., Temecula, CA). EphB4 and ephrin-B2 AP concentrations were calculated from alkaline phosphatase activity.
EphB4 Fc (1 µg/ml in TBST) was immobilized in protein A-coated plates and incubated for 3 hours with 0.02 nM ephrin-B2 AP in culture medium diluted in TBST in the presence of different concentrations of TNYL-RAW, TNYL-RAW-Fc, TNYL-RAW-streptavidin and PEG-TNYL-RAW. Bound ephrin-B2 AP was quantified by adding pNPP as the substrate and measuring the absorbance at 405 nm. Alkaline phosphatase activity from wells where human Fc (R&D Systems, Minneapolis, MN) was added instead of EphB4 Fc was subtracted as the background. The binding curves were analyzed using non linear regression and the program Prism (GraphPad Software Inc.).

Q: For CC[C@H](C)[C@H](NC(=O)[C@@H]1CCCN1C(=O)CNC(=O)[C@H](CC(N)=O)NC(=O)[C@@H]1CCCN1C(=O)[C@H](CO)NC(=O)[C@H](Cc1ccccc1)NC(=O)[C@H](CC(C)C)NC(=O)[C@H](Cc1ccc(O)cc1)NC(=O)[C@H](CC(N)=O)NC(=O)[C@@H](N)[C@@H](C)O)C(=O)N[C@@H](C)C(=O)N[C@@H](CCCNC(=N)N)C(=O)N[C@@H](C)C(=O)N[C@@H](Cc1c[nH]c2ccccc12)C(=O)NCCCCCC(=O)N[C@@H](CCCCNC(=O)CCCC[C@@H]1SC[C@@H]2NC(=O)N[C@@H]21)C(N)=O [TNYL-RAW] (H-TNYLFSPNGPIARAW[Ahx]K(Biotin)-NH2; N-terminus and C-terminus assumed), which “Loss in mouse serum ex vivo with protease inhibitors” value ([1]; mouse serum, mixture of protease inhibitors, ELISA, Fig. 1E) is on record?
A: partially counteracted by a mixture of protease inhibitors

Q: What about the “Stability in mouse serum ex vivo” value ([1]; undiluted mouse serum, functional peptide by ELISA, Figures 1E, 3B) of the same compound?
A: rapidly lost

Q: What about the “Peptide concentrations needed to substantially inhibit ephrin-B2-induced EphB4 tyrosine phosphorylation and downstream effects / EphB4-ephrin-B2 interaction in cultured cells” value (EphB4) of the same compound?
A: 10 to 100 µM

Q: What about the “Ability to inhibit ephrin-B2-EphB4 interaction after incubation in PC3 cell conditioned medium” value (EphB4-ephrin-B2 binding) of the same compound?
A: abolished the ability of TNYL-RAW to inhibit ephrin-B2-EphB4 interaction
